{"source": "patent US10946030B2", "about": "“Formulations of deoxycholic acid and salts thereof” (ALLERGAN SALES, LLC, priority 2011, dated 2021)", "key": {"[1]": {"experiment": "pH measurement of sodium deoxycholate solutions", "assay_type": "physicochemical", "excerpt": "The inverse aqueous solubility of sodium deoxycholate, where a more dilute solution (0.5% or 1%) provides more precipitation than a more concentrated solution (2%), is a surprising observation and also evidences that the precipitation phenomena is not directly related to pH, because the pH of the solutions were substantially the same again, especially for the 1% and 2% solutions."}, "[2]": {"experiment": "Concentration dependent precipitation from aqueous sodium deoxycholate solution after storage, rated by visual inspection", "assay_type": "physicochemical", "settings": "1 week storage; for Precipitation Rating: scale 0 = clear solution, 10 = substantial precipitation", "experimental": "Solutions of sodium deoxycholate at different concentration were evaluated for precipitate formation after 1 week of storage. […] By visual inspection of FIGS. 1-4, the amount of precipitation can be rated as tabulated below."}}, "note": "Entries after “also recorded” stand apart in the source; their conditions may differ."}
{"smiles": "C[C@H](CCC(=O)[O-])[C@H]1CCC2C3CC[C@@H]4C[C@H](O)CC[C@]4(C)C3C[C@H](O)[C@@]21C.[Na+]", "note": "(stereo partly drawn) [Sodium Deoxycholate, sodium (4R)-4-((3R,5R,10S,12S,13R,17R)-3,12-dihydroxy-10,13-dimethylhexadecahydro-1H-cyclopenta[a]phenanthren-17-yl)pentanoate]", "values": [{"measurement": "pH", "setting": "[1]; 0.5% w/v solution, reading 1, 24.7 °C", "value": 7.77}, {"measurement": "pH", "setting": "[1]; 0.5% w/v solution, reading 2, 24.5 °C", "value": 7.71}, {"measurement": "pH", "setting": "[1]; 1% w/v solution, reading 1, 24.6 °C", "value": 7.93}, {"measurement": "pH", "setting": "[1]; 1% w/v solution, reading 2, 24.5 °C", "value": 7.97}, {"measurement": "pH", "setting": "[1]; 2% w/v solution, reading 1, 24.9 °C", "value": 8.07}, {"measurement": "pH", "setting": "[1]; 2% w/v solution, reading 2, 24.7 °C", "value": 8.06}, {"measurement": "Precipitate observed (Comment)", "setting": "[2]; 0.5% w/v in water + 0.9% w/v benzyl alcohol, FIG. 2", "value": "Significant amounts of precipitate visible"}, {"measurement": "Precipitate observed (Comment)", "setting": "[2]; 0.5% w/v in water + 0.9% w/v benzyl alcohol, FIG. 2, listed as sodium deoxycholate", "value": "a significant amount of precipitate is formed; also recorded: significant amounts of precipitate"}, {"measurement": "Precipitation Rating", "setting": "[2]; 0.5% w/v in water + 0.9% w/v benzyl alcohol", "value": 10}, {"measurement": "Precipitate observed (Comment)", "setting": "[2]; 1% w/v in water + 0.9% w/v benzyl alcohol, FIG. 3", "value": "Significant amounts of precipitate visible"}, {"measurement": "Precipitate observed (Comment)", "setting": "[2]; 1% w/v in water + 0.9% w/v benzyl alcohol, FIG. 3, listed as sodium deoxycholate", "value": "a significant amount of precipitate is formed; also recorded: significant amounts of precipitate, albeit less than that of 0.5% w/v sodium deoxycholate"}, {"measurement": "Precipitation Rating", "setting": "[2]; 1.0% w/v in water + 0.9% w/v benzyl alcohol", "value": 7}, {"measurement": "Precipitate observed (Comment)", "setting": "[2]; 2% w/v in water + 0.9% w/v benzyl alcohol, FIG. 4", "value": "Precipitation visible to the naked eye but"}, {"measurement": "Precipitate observed (Comment)", "setting": "[2]; 2% w/v in water + 0.9% w/v benzyl alcohol, FIG. 4, listed as sodium deoxycholate", "value": "significant amounts of precipitate but substantially less than that observed in FIGS. 2 and 3"}, {"measurement": "Precipitation Rating", "setting": "[2]; 2.0% w/v in water + 0.9% w/v benzyl alcohol", "value": 2}]}
